Experiments:
[1] = Cytotoxicity against human Raji cells assessed as cell viability at 1000 molar ratio; type: cell-based; conditions: read-out: INH
[2] = Inhibition of TPA-induced EBV early antigen activation in human Raji cells relative to TPA; type: cell-based, human gammaherpesvirus 4
HL-60 = test: Cytotoxicity against human HL60 cells after 48 hrs by MTT assay; type: functional, cell-based; conditions: HL-60, 48 h
[3] = Cytotoxicity against human CRL1579 cells after 48 hrs by MTT assay; type: functional, cell-based
Raji [4] = test: Inhibition of TPA-induced EBV early antigen activation in human Raji cells at 100 molar relative to TPA; values are per cent of control; conditions: human gammaherpesvirus 4
Raji [5] = test: Inhibition of TPA-induced EBV early antigen activation in human Raji cells at 500 molar relative to TPA; values are per cent of control; conditions: human gammaherpesvirus 4
Raji [6] = test: Inhibition of TPA-induced EBV early antigen activation in human Raji cells at 1000 molar relative to TPA; values are per cent of control; conditions: human gammaherpesvirus 4
Raji [7] = test: Inhibition of TPA-induced EBV early antigen activation in human Raji cells at 10 molar ratio relative to TPA; values are per cent of control; conditions: human gammaherpesvirus 4
Mus musculus [8] = organism: Mus musculus; test: Inhibition of DMBA-induced/TPA-promoted carcinogenesis in ICR mouse assessed as reduction of skin papillomas measured after 20 weeks relative to TPA; type: functional
Mus musculus [9] = organism: Mus musculus; test: Inhibition of DMBA-induced/TPA-promoted carcinogenesis in ICR mouse assessed as reduction of skin papillomas measured after 11 weeks relative to TPA; type: functional

| Structure (SMILES) | viability at 1000 molar ratio [1] | IC50 [2] | IC50 (HL-60) | IC50 [3] | level, % of control (Raji [4]) | level, % of control (Raji [5]) | level, % of control (Raji [6]) | level, % of control (Raji [7]) | inhibition (INH) (Mus musculus [8]) | inhibition (INH) (Mus musculus [9]) |
| --- | --- | --- | --- | --- | --- | --- | --- | --- | --- | --- |
| C=C(CC[C@@H](C(=O)O)[C@H]1[C@H](O)C[C@@]2(C)C3=C(CC[C@]12C)[C@@](C)(CCC(=O)O)[C@H](C(=C)C)C=C3)C(C)C [6,7-DEHYDROPORICOIC ACID H] | 70% | 193 molar ratio | > 100 µM | > 100 µM | 56% | 15.2% | 0% | 80.9% |  |  |
| C=C(CC[C@@H](C(=O)O)[C@H]1[C@H](O)C[C@@]2(C)C3=C(CC[C@]12C)[C@@](C)(CCC(=O)OC)[C@H](C(=C)C)CC3)C(C)C [PORICOIC ACID HM] | 70% | 219 molar ratio |  |  | 61.3% | 20.3% | 0% | 87.5% |  |  |
| C=C(CC[C@@H](C(=O)O)[C@H]1[C@H](O)C[C@@]2(C)[C@]34C=C[C@@]5(OO3)C(C)(C)[C@@H](O)CC[C@]5(C)C4=CC[C@]12C)C(C)C |  |  | > 100 µM | > 100 µM |  |  |  |  |  |  |
| C=C(C)[C@@H]1CC=C2C(=CC[C@]3(C)[C@@H]([C@@H](CCC(=C)C(C)(O)CO)C(=O)O)[C@H](O)C[C@@]23C)[C@@]1(C)CCC(=O)OC (stereo partly specified) | 70% | 187 molar ratio | 94.6 µM | 98.4 µM | 55.3% | 14.1% | 0% | 80.2% |  |  |
| C=C(C)[C@@H]1CC=C2C(=CC[C@]3(C)[C@@H]([C@@H](CCC=C(C)C)C(=O)O)[C@H](O)C[C@@]23C)[C@@]1(C)CCC(=O)O [PORICOIC ACID B] |  |  | > 100 µM | > 100 µM |  |  |  |  |  |  |
| C=C(C)[C@@H]1CCC2=C(CC[C@]3(C)[C@@H]([C@@H](CCC=C(C)C)C(=O)O)[C@H](O)C[C@@]23C)[C@@]1(C)CCC(=O)OC [PORICOIC ACID GM] | 70% | 216 molar ratio |  |  | 60.1% | 19.9% | 0% | 86.4% |  |  |
| C=C(C)[C@@H]1CC=C2C(=CC[C@]3(C)[C@@H]([C@@H](CCC(=C)C(C)(C)O)C(=O)O)CC[C@@]23C)[C@@]1(C)CCC(=O)O [25-HYDROXYPORICOIC ACID C] | 70% | 201 molar ratio | 30.8 µM | 92.7 µM | 57.1% | 16.2% | 0% | 83.1% |  |  |
| C=C(C)[C@@H]1CC=C2C(=CC[C@]3(C)[C@@H]([C@@H](CCC(=C)C(C)(C)OC)C(=O)O)[C@H](O)C[C@@]23C)[C@@]1(C)CCC(=O)O [25-METHOXYPORICOIC ACID A] | 70% | 268 molar ratio | > 100 µM | > 100 µM | 58.2% | 17.8% | 0% | 84.4% | 80% | 20% |
| CC(C)(O)c1ccc2c(c1)C(=O)C[C@H]1[C@](C)(C(=O)O)CCC[C@]21C | 60% | 238 molar ratio | > 100 µM | > 100 µM | 69.1% | 19.5% | 0% | 93.4% |  |  |
| C=C(CC[C@@H](C(=O)O)[C@H]1[C@H](O)C[C@@]2(C)C3=CC[C@@H](C(=C)C)[C@](C)(CCC(=O)O)C3=CC[C@]12C)C(C)C [PORICOIC ACID A] |  |  | 38 µM | > 100 µM |  |  |  |  |  |  |
| CC1=C(/C=C/C(C)=C/C=C/C(C)=C/C=C/C=C(C)/C=C/C=C(C)/C=C/C2=C(C)CCCC2(C)C)C(C)(C)CCC1 [BETA CAROTENE] |  | 397 molar ratio |  |  | 82.1% | 34.2% | 8.6% | 100% |  |  |
| C=C(C)[C@@H]1CC=C2C(=CC[C@]3(C)[C@@H]([C@@H](CCC(=C)C(C)(C)O)C(=O)O)[C@H](O)C[C@@]23C)[C@@]1(C)CCC(=O)OC [PORICOIC ACID DM] |  |  | > 100 µM | > 100 µM |  |  |  |  |  |  |
| C=C(CC[C@@H](C(=O)O)[C@H]1[C@H](O)C[C@@]2(C)C3=C(CC[C@]12C)[C@@]1(C)CCC(=O)C(C)(C)[C@@H]1CC3)C(C)(C)O | 70% | 299 molar ratio | 84.7 µM | 28.7 µM | 72.2% | 36.1% | 0% | 96.1% |  |  |
| C=C(CC[C@@H](C(=O)O)[C@H]1[C@H](O)C[C@@]2(C)C3=CC[C@@H](C(=C)C)[C@](C)(CCC(=O)OC)C3=CC[C@]12C)C(C)C [PORICOIC ACID AM] |  |  | 15.9 µM | 88.9 µM |  |  |  |  |  |  |
| C=C(CC[C@@H](C(=O)O)[C@H]1[C@H](O)C[C@@]2(C)C3=C(CC[C@]12C)[C@@]1(C)CCC(=O)C(C)(C)[C@@H]1CC3)C(C)C | 70% | 348 molar ratio | > 100 µM | > 100 µM | 70.3% | 28.3% | 2.2% | 96.4% |  |  |
| C=C(C)[C@@H]1CCC2=C(CC[C@]3(C)[C@@H]([C@@H](CCC=C(C)C)C(=O)O)[C@H](O)C[C@@]23C)[C@@]1(C)CCC(=O)O [PORICOIC ACID G] |  |  | 32.6 µM | > 100 µM |  |  |  |  |  |  |
| C=C(CC[C@@H](C(=O)O)[C@H]1[C@H](O)C[C@@]2(C)C3=CC[C@H]4C(C)(C)[C@H](O)CC[C@]4(C)C3=CC[C@]12C)C(C)(C)O |  |  | 29.4 µM | 84 µM |  |  |  |  |  |  |
| C=C(CC[C@@H](C(=O)O)[C@H]1[C@H](O)C[C@@]2(C)C3=C(CC[C@]12C)[C@@](C)(CCC(=O)O)[C@H](C(=C)C)CC3)C(C)C [PORICOIC ACID H] |  |  | 28.4 µM | > 100 µM |  |  |  |  |  |  |
